According to US10039764B2, “Treatment and diagnosis of cancer and precancerous conditions using PDE10A inhibitors and methods to measure PDE10A expression” (University of South Alabama, priority 2013, dated 2018):
Read-outs that look alike come from different tables or passages of the source. One block for each compound: values may come before it.

Legend:
[1] = test system: HT29 human colon tumor cells; assay: Growth assay (Cell Titer Glo), HT29; format: cell-based
Source text: (§1) All cell lines comprising the NCI-60 cancer cell panel were obtained from the NCI Developmental Therapeutics Program and maintained under the same standard conditions. The human normal colonocyte (NCM460) cell line was purchased from Incell (San Antonio, Tex.) and grown according to the manufacturer's specifications. The human colon adenoma cell line, LT97, was a gift from Dr. Brigitte Marian (Medical University Vienna, Austria) and grown according to the provider's specifications. Human mammary epithelial cells (HMEC) were purchased from Lonzo and grown using culture conditions as recommended by the supplier.
(§2) Ninety-six (96)-well microtiter plates were seeded at a density of 5,000 cells per well. For drug treatment, cells were treated with compounds or vehicle control, and incubated at 37° C. for 72 hours. For siRNA assays, cells were transfected with siRNA under the same conditions described above. The effect of treatment with inhibitors or siRNA knockdown of PDE10A on growth was measured using the Cell Titer Glo Assay (Promega), which measures viable cell number based on ATP content.
(§3) Effect of various PDE isozyme inhibitors on the growth of human colon tumor cells HCT116 and HT29 was determined using the Cell Titer Glo Cell Viability Assay (Promega) following 72 hours of treatment.
(§4) The effect of the inhibitors on the growth of human colon tumor and normal colonocytes was measured using the Cell Titer Glo Cell Viability Assay (Promega) as described above. The inhibitory potency toward purified recombinant phosphodiesterase enzymes was measured using the IMAP Phosphodiesterase Assay as described in the Materials and Methods section.

[2] = test system: HCT116 human colon tumor cells; assay: Growth assay (Cell Titer Glo), HCT116; format: cell-based; conditions: for HCT116 colon tumor cell growth, single agents and combination (in words): FIG. 12A
Source text: as §1, §2, §3, §4

PDE10A [3] = biological target: T1, PDE10A (Homo sapiens, UniProt Q9Y233); assay: IMAP fluorescence polarization PDE assay, PDE10A; format: biochemical; conditions: recombinant enzyme
T1 construct: other: substrate cGMP; recombinant enzyme; other: substrate cAMP
T1 sequence (Q9Y233 290-1055 limits assumed): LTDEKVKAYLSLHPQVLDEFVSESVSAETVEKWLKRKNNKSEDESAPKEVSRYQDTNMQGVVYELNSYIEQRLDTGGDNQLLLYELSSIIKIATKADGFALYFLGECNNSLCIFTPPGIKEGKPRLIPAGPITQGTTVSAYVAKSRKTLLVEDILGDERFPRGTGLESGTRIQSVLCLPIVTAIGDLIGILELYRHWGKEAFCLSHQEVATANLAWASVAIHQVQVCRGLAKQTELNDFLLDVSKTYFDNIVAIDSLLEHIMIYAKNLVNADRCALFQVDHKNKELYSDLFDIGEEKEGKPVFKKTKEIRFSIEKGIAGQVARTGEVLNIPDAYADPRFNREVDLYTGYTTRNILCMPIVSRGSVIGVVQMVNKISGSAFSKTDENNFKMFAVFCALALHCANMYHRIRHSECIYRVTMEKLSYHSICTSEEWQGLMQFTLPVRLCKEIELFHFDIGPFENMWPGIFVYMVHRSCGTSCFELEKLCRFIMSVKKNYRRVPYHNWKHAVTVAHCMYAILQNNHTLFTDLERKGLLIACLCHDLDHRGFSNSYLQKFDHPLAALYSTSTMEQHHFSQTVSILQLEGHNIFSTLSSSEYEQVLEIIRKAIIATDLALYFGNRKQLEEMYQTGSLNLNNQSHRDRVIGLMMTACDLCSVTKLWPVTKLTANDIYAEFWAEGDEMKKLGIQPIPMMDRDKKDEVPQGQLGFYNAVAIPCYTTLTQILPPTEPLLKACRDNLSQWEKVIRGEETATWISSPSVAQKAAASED
Protocol: (§5) MY5445 was purchased from EMD Millipore. […] Recombinant PDE enzymes were purchased from BPS Biosciences. DMSO was used as the vehicle for testing effects of all compounds.
(§6) PDE enzymatic activity was measured using IMAP fluorescence polarization assay (Molecular Devices. Inc.). […] For experiments involving cell extracts, 2×10^5 cells per well were plated on a six-well tissue culture plate 72 hours prior to cell lysis.
as §4

[4] = test system: SW480 human colon tumor cells; assay: Growth assay (Cell Titer Glo), SW480; format: cell-based; conditions: PDE10 Inhibitors table, read-out: Growth Inhibition IC50, SW-480
Source text: as §1, §2, §4

other PDE isozymes = conditions: reported, read-out: Phosphodiesterase Inhibition, Others, IC50 (reported); cited from earlier work
PDE7A1 = PDE7A1 (Homo sapiens, UniProt Q13946); conditions: @ 3 μM; cited from earlier work
PDE7A1, sequence (Q13946 whole entry, species assumed): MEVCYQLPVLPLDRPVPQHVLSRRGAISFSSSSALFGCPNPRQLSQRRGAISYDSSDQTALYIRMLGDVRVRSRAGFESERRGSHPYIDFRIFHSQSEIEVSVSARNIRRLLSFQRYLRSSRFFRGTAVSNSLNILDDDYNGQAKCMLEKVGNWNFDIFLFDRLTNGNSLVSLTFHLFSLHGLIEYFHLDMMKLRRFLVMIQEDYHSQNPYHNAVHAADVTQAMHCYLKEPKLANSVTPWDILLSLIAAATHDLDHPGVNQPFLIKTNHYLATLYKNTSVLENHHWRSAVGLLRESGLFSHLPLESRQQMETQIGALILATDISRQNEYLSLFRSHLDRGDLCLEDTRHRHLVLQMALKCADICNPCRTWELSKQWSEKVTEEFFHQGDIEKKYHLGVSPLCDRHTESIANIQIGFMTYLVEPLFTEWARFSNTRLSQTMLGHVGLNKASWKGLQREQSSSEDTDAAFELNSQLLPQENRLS

PDE10A [5] = conditions: reported; substrate column not distinguished; read-out: Phosphodiesterase Inhibition PDE10A IC50 (reported); cited from earlier work
PDE3A = biological target: T2, PDE3A (Homo sapiens, UniProt Q14432); conditions: reported; substrate column not distinguished; read-out: Phosphodiesterase Inhibition PDE3A IC50 (reported); cited from earlier work
T2 construct: purchased BPS Biosciences
T2 sequence (Q14432 whole entry): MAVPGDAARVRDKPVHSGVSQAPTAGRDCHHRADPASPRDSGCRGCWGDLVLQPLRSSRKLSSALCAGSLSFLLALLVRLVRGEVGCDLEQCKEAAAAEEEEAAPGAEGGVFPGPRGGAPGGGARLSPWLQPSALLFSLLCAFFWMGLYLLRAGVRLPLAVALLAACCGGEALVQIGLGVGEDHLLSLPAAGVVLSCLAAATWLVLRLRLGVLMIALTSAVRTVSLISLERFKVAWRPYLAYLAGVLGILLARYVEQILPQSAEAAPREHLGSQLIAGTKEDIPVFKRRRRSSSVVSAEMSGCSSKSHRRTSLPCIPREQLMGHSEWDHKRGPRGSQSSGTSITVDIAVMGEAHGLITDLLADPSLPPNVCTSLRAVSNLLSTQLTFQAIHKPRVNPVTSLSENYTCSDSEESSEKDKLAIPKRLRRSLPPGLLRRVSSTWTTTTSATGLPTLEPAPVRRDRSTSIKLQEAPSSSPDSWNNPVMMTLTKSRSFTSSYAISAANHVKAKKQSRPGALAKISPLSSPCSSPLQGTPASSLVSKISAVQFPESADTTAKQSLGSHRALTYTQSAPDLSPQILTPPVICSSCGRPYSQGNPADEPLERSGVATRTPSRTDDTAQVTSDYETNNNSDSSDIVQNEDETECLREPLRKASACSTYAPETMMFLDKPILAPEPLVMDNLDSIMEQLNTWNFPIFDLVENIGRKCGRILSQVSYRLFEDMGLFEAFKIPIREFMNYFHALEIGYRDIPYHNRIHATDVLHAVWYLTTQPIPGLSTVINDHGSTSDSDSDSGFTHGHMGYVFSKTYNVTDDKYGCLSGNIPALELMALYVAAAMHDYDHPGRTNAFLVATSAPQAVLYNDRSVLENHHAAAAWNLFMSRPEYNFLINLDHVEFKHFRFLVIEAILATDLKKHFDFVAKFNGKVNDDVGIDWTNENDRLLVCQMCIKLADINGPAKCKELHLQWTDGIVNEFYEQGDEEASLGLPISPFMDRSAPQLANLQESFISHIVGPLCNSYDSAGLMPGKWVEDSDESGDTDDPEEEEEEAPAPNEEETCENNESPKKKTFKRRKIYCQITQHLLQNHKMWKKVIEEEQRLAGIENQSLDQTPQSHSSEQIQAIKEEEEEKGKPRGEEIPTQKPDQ

β-catenin and survivin = assay: Western blotting of β-catenin and survivin levels in HCT116; format: cell-based, human; conditions: FIG. 12B
Protocol: Western blot analysis was performed as described previously (Tinsley, et al., supra). The following antibodies were used to detect specific proteins: PDE2 (GeneTex, 1:1000), PDE3 (Abcam, 1:1000), PDE5 (Cell Signaling, 1:1000), PDE10 (GeneTex, 1:1000), survivin (Cell Signaling, 1:1000), GAPDH (Cell Signaling, 1:5000).

PDE5A = biological target: T3, PDE5A (Homo sapiens, UniProt O76074); assay: IMAP fluorescence polarization PDE assay, PDE5A; format: biochemical; conditions: substrate cGMP; read-out: Phosphodiesterase Inhibition PDE5A (PDE5) cGMP IC50
T3 construct: purchased BPS Biosciences
Protocol: as §5, §6, §4

[6] = test system: normal colonocytes (NCM460); assay: Growth assay (Cell Titer Glo), normal colonocytes NCM460; format: cell-based, human; conditions: for IC50: Homo sapiens, NCM460
Source text: as §1, §2, §4

[7] = test system: NCI-60 cancer cell line panel; assay: Growth inhibition in NCI-60 cancer cell line panel; format: cell-based, human; conditions: FIG. 13
Protocol: Tumor growth inhibitory activity was measured using a cell viability assay following 72 hours of treatment. Potency values (GI50) as measured in each tumor cell line are shown on the y axis.
The human colon tumor cell lines, HCT116, HT29, SW480, SW620, colo741, Caco-2, DLD-1, LS174T, and RKO and human breast tumor cell lines, MCF7, T47D, ZR75, MDA-MB-231, HS578T, and MDA-MB-468 were purchased from ATCC and grown under standard cell culture conditions in RPMI 1640 medium containing 5% fetal bovine serum (FBS) at 37° C. in a humidified atmosphere with 5% CO2. All cell lines comprising the NCI-60 cancer cell panel were obtained from the NCI Developmental Therapeutics Program and maintained under the same standard conditions. The human normal colonocyte (NCM460) cell line was purchased from Incell (San Antonio, Tex.) and grown according to the manufacturer's specifications. The human colon adenoma cell line, LT97, was a gift from Dr. Brigitte Marian (Medical University Vienna, Austria) and grown according to the provider's specifications. […]
Ninety-six (96)-well microtiter plates were seeded at a density of 5,000 cells per well. […] The effect of treatment with inhibitors or siRNA knockdown of PDE10A on growth was measured using the Cell Titer Glo Assay (Promega), which measures viable cell number based on ATP content. […]

human colon tumor cells = assay: Colon tumor cell growth (Cell Titer Glo), cell line not specified; format: cell-based; conditions: 72 hours of treatment
Protocol: as §2, §3

[8] = test system: cGMP PDE activity in lysates from HCT116 cells; assay: cGMP PDE activity in HCT116 cell lysates (IMAP); format: biochemical, human; conditions: FIG. 11B
Protocol: Cell growth was measured by the Cell Titer Glo cell viability assay (Promega) following 72 hours of treatment, while cGMP PDE activity was measuring using the IMAP fluorescence polarization PDE assay (Molecular Devises).
as §6

[9] = test system: patients with metastatic disease; conditions: Lundholm et al. 1994; cited from earlier work
[10] = 72 hours of treatment, PDE isozyme inhibitor table
[11] = Homo sapiens, HCT-116, PDE10 Inhibitors table, read-out: Growth Inhibition IC50, HCT-116
[12] = Homo sapiens, HT-29, PDE10 Inhibitors table, read-out: Growth Inhibition IC50, HT-29
[13] = PDE10 Inhibitors table, read-out: Growth Inhibition IC50, NCM-460

- Growth Inhibition (IC50/μM) HT29 [1, 10]: Inactive
- Growth Inhibition (IC50/μM) HCT116 [2, 10]: Inactive
Structure (SMILES): CCCCCC[C@@H]([C@@H](C)O)n1cnc2c(N)ncnc21 (racemic) [EHNA]

- Growth Inhibition (IC50/μM) HT29 [1, 10]: Inactive
- Growth Inhibition (IC50/μM) HCT116 [2, 10]: Inactive
Structure (SMILES): COCc1nc2c([nH]1)c(=O)n(C)c(=O)n2CC(C)C [8-MeoM-IBMX]

- Growth Inhibition (IC50/μM) HT29 [1, 10]: Inactive
- Growth Inhibition (IC50/μM) HCT116 [2, 10]: Inactive
Structure (SMILES): O=C1CCc2cc(OCCCCc3nnnn3C3CCCCC3)ccc2N1 [Cilostazol, cilostazol]

Structure (SMILES): COc1cc(/C=N/NC(=O)C(OC)c2ccc(-n3cccn3)cc2)cc(OC)c1Br (centres unmarked) [Compound no. 4, (E)-2-{4-(1H-pyrazol-1-yl)phenyl}-N′-(4-bromo-3,5-dimethoxybenzylidene)-2-methoxyacetohydrazide]
- IC50 ([2]; Homo sapiens, HCT-116, read-out: Growth Inhibition IC50, HCT-116): 3.13 µM

- IC50 [2, 11]: 9.93 µM
- IC50 (PDE10A [3]; substrate cAMP, read-out: Phosphodiesterase Inhibition PDE10A cAMP IC50): 0.00866 µM
- IC50 (PDE10A [3]; substrate cGMP, read-out: Phosphodiesterase Inhibition PDE10A cGMP IC50): 0.0089 µM
Structure (SMILES): Cc1nc2c3cc(Br)ccc3nc(SCC#N)n2n1 [Compound no. 5, 2-{(9-bromo-2-methyl-[1,2,4]triazolo[1,5-c]quinazolin-5-yl)thio}acetonitrile]

- IC50 [4]: > 50 µM
- IC50 [1, 12]: > 50 µM
- IC50 [2, 11]: > 50 µM
Structure (SMILES): COc1cc2c(cc1OC)-c1c(-c3cccnc3)ncn1CC2 [Compound no. 7, 8,9-dimethoxy-1-(pyridin-3-yl)-5,6-dihydroimidazo[5,1-a]isoquinoline]
- IC50 (other PDE isozymes): > 4 µM
- Phosphodiesterase Inhibition PDE7A1 (reported) (PDE7A1): 45%
- IC50 (PDE10A [5]): 0.029 µM
- IC50 (PDE3A): 0.449 µM

Structure (SMILES): Clc1cccc(Nc2nnc(-c3ccccc3)c3ccccc23)c1 [MY5445]
- IC50 ([1]; 72 hours of treatment, PDE isozyme inhibitor table, read-out: Growth Inhibition (IC50/μM) HT29): 11 µM
- IC50 ([2]; 72 hours of treatment, PDE isozyme inhibitor table, read-out: Growth Inhibition (IC50/μM) HCT116): 18 µM
- HCT116 colon tumor cell growth, single agents and combination (in words) [2]: suppressed
- β-catenin and survivin levels in HCT116 colon tumor cells (in words) (β-catenin and survivin): reduced

- IC50 [4]: 3.7 µM
- IC50 (PDE5A): > 50 µM
- IC50 [1, 12]: 0.95 µM
- IC50 [2, 11]: 8.4 µM
Structure (SMILES): Cn1cc(-c2ccncc2)c(-c2ccc(OCc3ccc4ccccc4n3)cc2)n1 [PF-2545920, 2-[4-(1-methyl-4-pyridin-4-yl-1H-pyrazol-3-yl)-phenoxymethyl]-quinoline]
- growth inhibition in normal colonocytes (in words) ([6]; 72 hours of treatment, FIG. 11D): appreciably less effective
- IC50 [6, 13]: 18.8 µM
- tumor cell growth inhibitory activity in the NCI-60 cancer cell line panel (in words) [7]: broad range of tumor cell growth inhibitory activity
- GI50 ([7]; Homo sapiens, 72 hours of treatment, average over panel, read-out: average GI50 value in NCI60 cancer cell line panel): 17.7 µM
- colon tumor cell growth inhibition (in words) (human colon tumor cells): potently inhibited

Structure (SMILES): COc1ccc(Cc2nccc3cc(OC)c(OC)cc23)cc1OC [Papaverine, papaverine]
- IC50 [4]: 11.2 µM
- cGMP hydrolysis in lysates from HCT116 cells (in words) [8]: inhibited
- IC50 ([6]; 72 hours of treatment, FIG. 11, read-out: IC50, growth of normal colonocytes (NCM460)): 118 µM
- IC50 [6, 13]: > 100 µM
- normal colonocytes (NCM460) less sensitive than colon tumor cell lines ([6]; NCM460 vs HCT116 and HT29): approximately 11 fold
- IC50 ([1]; Homo sapiens, HT-29, 72 h, read-out: Growth Inhibition (IC50/μM) HT29): 13 µM
- IC50 ([1]; Homo sapiens, HT-29, 72 hours of treatment, FIG. 11, read-out: IC50, growth of HT29 colon tumor cells): 13 µM
- IC50 [1, 12]: 24.5 µM
- HCT116 colon tumor cell growth, single agents and combination (in words) [2]: suppressed
- IC50 ([2]; Homo sapiens, HCT-116, 72 h, read-out: Growth Inhibition (IC50/μM) HCT116): 9 µM
- IC50 ([2]; Homo sapiens, HCT-116, 72 hours of treatment, FIG. 11, read-out: IC50, growth of HCT116 colon tumor cells): 9 µM
- IC50 [2, 11]: 6.7 µM
- β-catenin and survivin levels in HCT116 colon tumor cells (in words) (β-catenin and survivin): reduced

- Growth Inhibition (IC50/μM) HT29 [1, 10]: Inactive
- Growth Inhibition (IC50/μM) HCT116 [2, 10]: Inactive
Structure (SMILES): COc1ccc(C2CNC(=O)C2)cc1OC1CCCC1 (centres unmarked) [Rolipram, rolipram]

- IC50 ([2]; Homo sapiens, HCT-116, 72 hours of treatment, PDE isozyme inhibitor table, read-out: Growth Inhibition (IC50/μM) HCT116): 38 µM
Structure (SMILES): CN1CC(=O)N2[C@H](c3ccc4c(c3)OCO4)c3[nH]c4ccccc4c3C[C@@H]2C1=O [Tadalafil, tadalafil]

Structure (SMILES): COc1ccc2c(c1)c(CC(=O)O)c(C)n2C(=O)c1ccc(Cl)cc1 [indomethacin]
- extension of survival [9]: approximately 9 months
